Data on three compounds can be found in US20070249686A1, “Modulators of Crth-2 Receptor Activity for the Treatment of Prostaglandin D2 Mediated Diseases” (ASTRAZENECA AB, priority 2004, published 2007).

SMILES strings stand for the structures.

The assay deals with T1, CRTh2 (Homo sapiens, UniProt Q9Y5Y4).
T1 construct: expressed in transfected cells; host or cells: HEK cells (membrane preparation)
T1 sequence (Q9Y5Y4 1-395): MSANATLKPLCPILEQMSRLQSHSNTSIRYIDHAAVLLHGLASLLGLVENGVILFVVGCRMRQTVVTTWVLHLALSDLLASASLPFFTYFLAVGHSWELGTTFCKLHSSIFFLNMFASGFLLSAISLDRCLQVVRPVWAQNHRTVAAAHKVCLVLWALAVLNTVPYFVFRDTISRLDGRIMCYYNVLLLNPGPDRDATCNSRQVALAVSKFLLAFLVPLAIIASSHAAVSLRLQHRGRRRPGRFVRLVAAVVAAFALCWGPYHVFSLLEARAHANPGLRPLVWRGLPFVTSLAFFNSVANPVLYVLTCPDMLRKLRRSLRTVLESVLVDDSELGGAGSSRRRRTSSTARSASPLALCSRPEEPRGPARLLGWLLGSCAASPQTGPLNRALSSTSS
Briefly: Ligand binding assay: [3H]PGD2 binding to membranes of HEK cells expressing rhCRTh2/Gα16 (SPA beads). As to conditions: [3H]PGD2 displacement, HEK cell membranes containing CRTh2, SPA, 2 hours at room temperature. On the procedure: [hu 3H]PGD2 was purchased from Perkin Elmer Life Sciences with a specific activity of 100-210 Ci/mmol. All other chemicals were of analytical grade.
HEK cells expressing rhCRTh2/Gα16 were routinely maintained in DMEM containing 10% Foetal Bovine Serum (HyClone), 1 mg/ml geneticin, 2 mM L-glutamine and 1% non-essential amino acids. For the preparation of membranes, the adherent transfected HEKcells were grown to confluence in two layer tissue culture factories (Fisher, catalogue number TKT-170-070E). Maximal levels of receptor expression were induced by addition of […] sodium butyrate for the last 18 hours of culture. The adherent cells were washed once with phosphate buffered saline (PBS, 50 ml per cell factory) and detached by the addition of 50 ml per cell factory of ice-cold membrane homogenisation buffer [20 mM HEPES (pH 7.4), 0.1 mM dithiothreitol, 1 mM EDTA, 0.1 mM phenyl methyl sulphonyl fluoride and 100 μg/ml bacitracin]. […] The final pellet was re-suspended in 4 ml of membrane homogenisation buffer per cell factory used and the protein content determined. […]
All assays were performed in Corning clear bottomed, white 96-well NBS plates (Fisher). […] (The optimum coating concentrations were determined for each batch of membranes) The beads were pelleted by centrifugation (800×g for 7minutes at 4° C.), washed once with assay buffer (50 mM HEPES pH 7.4 containing 5 mM magnesium chloride) and finally re-suspended in assay buffer at a bead concentration of 10 mg/ml.
Each assay contained 20 μl of 6.25 nM [^3H]PGD2, 20 μl membrane saturated SPA beads both in assay buffer and 10 μl of compound solution or 13,14-dihydro-15-keto prostaglandin D2 (DK-PGD2, for determination of non-specific binding, Cayman chemical company). […] The assay plate was incubated at room temperature for 2 hours and counted on a Wallac Microbeta liquid scintillation counter (1 minute per well).

Take `CCS(=O)(=O)c1ccc(-c2nc(C)ccc2OCC(=O)O)c(C)c1` [Example 11, ({2-[4-(Ethylsulfonyl)-2-methylphenyl]-6-methylpyridin-3-yl}oxy)acetic acid]: the 50% inhibitory concentration (IC50) is 63.1 nM.

In turn, `Cc1nn(S(=O)(=O)N(C)C)cc1-c1cc(C(F)(F)F)ccc1O[C@@H](C)C(=O)O` [Example 22, (2S)-2-[2-{1-[(Dimethylamino)sulfonyl]-3-methyl-1H-pyrazol-4-yl}-4-(trifluoromethyl)phenoxy]propanoic acid] showed an IC50 of 10 nM.

`CS(=O)(=O)c1ccc(-c2cc(C(F)(F)F)ccc2CCC(=O)O)cc1C(F)(F)F` [Example 31, 3-[4′-(Methylsulfonyl)-3′,5-bis(trifluoromethyl)biphenyl-2-yl]propanoic acid]: the IC50 is 39.8 nM.

By IC50 is commonly meant the point on the concentration scale where inhibition reaches its midpoint. Read a low IC50 as greater potency.
